Data taken from patent US20070231874A1, “Crystal of glucokinase protein, and method for drug design using the crystal” (priority 2002, published 2007).

Molecular target: T1, glucokinase (Homo sapiens, UniProt P35557)
T1 sequence (P35557 1-466 isoform P35557-2): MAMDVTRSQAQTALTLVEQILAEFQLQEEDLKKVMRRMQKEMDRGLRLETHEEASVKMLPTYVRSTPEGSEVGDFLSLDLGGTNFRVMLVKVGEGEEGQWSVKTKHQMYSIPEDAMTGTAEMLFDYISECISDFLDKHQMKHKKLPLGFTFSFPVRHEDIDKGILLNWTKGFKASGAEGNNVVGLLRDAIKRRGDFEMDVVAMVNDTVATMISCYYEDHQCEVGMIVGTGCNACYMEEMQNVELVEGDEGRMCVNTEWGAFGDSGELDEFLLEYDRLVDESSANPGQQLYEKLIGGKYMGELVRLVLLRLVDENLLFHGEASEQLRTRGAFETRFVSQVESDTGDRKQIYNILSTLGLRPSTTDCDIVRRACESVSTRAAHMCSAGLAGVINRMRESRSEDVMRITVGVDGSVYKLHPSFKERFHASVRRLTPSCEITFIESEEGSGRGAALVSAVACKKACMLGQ
Test: glucokinase activity assay of compounds found by pharmacophore screening (activation relative to control)
Type: biochemical
Conditions: glucose 2.5 M, ligand 10 μM; activity of glucokinase is 100% in the case of control
From the text: Library compounds were screened using, as research conditions, pharmacophore of a hydrogen bond acceptor and hydrogen bond donor generated respectively from NH and CO of a main chain of Arg63, hydrophobic pharmacophore formed in a space corresponding to a phenyl group of an aniline part of a ligand forming a complex, and the protein surface made based on the structure of a protein, by using a software UNITY (manufactured by Tripos), and the following compound 4 and compound 5 were obtained and assayed, to confirm activities of 780% and 560%. An activity of 780% means that when the activity of glucokinase is 100% in the case of control, the activity is enhanced up to 780% by these compound (using glucose 2.5 M, and ligand 10 μM). [drawing 15]

SMILES | activity of glucokinase (control = 100%) [%]
CCOC(=O)c1csc(NC(=O)c2cc(Sc3ccncc3)ccc2N)n1 [compound 5] | 560
Nc1ccc(Oc2ccccc2)cc1C(=O)Nc1nccs1 [compound 4] | 780
